# Test results taken from US4431634A, “Prenatal iron supplements” (American Cyanamid Company, priority 1981, dated 1984).
# Where two headings read alike, the source gives them in different places.
# Key:
# [1] = human, in vivo
# Protocol: (§1) The absorption of iron was established by collection of venous blood samples collected by hypodermic syringe and clotted at room temperature for one hour in silicone coated glass tubes. The tubes were centrifuged at 4,000 g for 30 minutes at 4° C. to isolate the serum which is removed and stored at -20° C. The serum samples were assayed for serum iron via spectrophotometry using ferrozine reagent.
# (§2) The tests were conducted in healthy menstruating female volunteers 21 to 45 years of age having normal hemoglobin and hematocrit valves. The subjects fasted overnight. Fifteen to 24 subjects were used in each study. Each study was conducted as a randomized crossover trial with the composition being administered at 8 a.m. at 3 to 4 day intervals. Blood was first taken in the fasting state. Then the preparation was administered using 50 ml of deionized water and the subjects remained fasting until the final blood sample was obtained. Serum iron levels were assayed in duplicate on a blind basis.
# (§3) All valves were corrected using this valve for diurnal variation. Values for iron absorption were calculated from the increases in serum iron concentration measured 2 to 6 hours after iron ingestion.
# (§4) In each case, the quantities of mineral stated are on the basis of the elemental metal as opposed to the weight of the entire salt.
# (§5) This study involved 15 female subjects of child bearing age.
# (§6) Again, 15 females of child bearing age were studied using ferrous fumarate alone and in combinations of calcium sulfate (CS), calcium carbonate (CC) and magnesium oxide (MX). The study involved 15 females of child bearing age with data obtained three hours after oral ingestion.
# (§7) The data were obtained 3 hours after oral ingestion.
# [2] = Iron absorption in healthy menstruating female volunteers (serum iron after oral ingestion, randomized crossover; Studies I-IV); conditions: 3 hours after oral ingestion; for effect of co-administered mineral salt on iron absorption: Study II, co-administered with ferrous fumarate
# Protocol: as §1, §2, §3, §4, §5, §6, §7
smiles,measurement,setting,value
"O=C([O-])/C=C/C(=O)[O-].[Fe+2] [Ferrous fumarate, ferrous fumarate, reference compound]","Calculated mean values for iron absorption, Average",[1],8.1 mg
O=C(O)O [calcium carbonate],effect of co-administered mineral salt on iron absorption,[2],additive inhibitory effects on iron absorption
same,effect of mineral component on bioavailability of the iron supplement,"[2]; Study III, mineral components of the formulations",depressant effects
"O=S(=O)([O-])[O-].[Ca+2] [Plaster of paris, calcium sulfate]",effect of co-administered mineral salt on iron absorption,[2],does not seem to be inhibitory
[O]=[Mg] [magnesium oxide],effect of co-administered mineral salt on iron absorption,[1]; po,additive inhibitory effects on iron absorption
same,effect of mineral component on bioavailability of the iron supplement,[1]; po,depressant effects
